The target in experiment [1] is LSD1 (Homo sapiens, UniProt O60341). As to the kind of experiment: LSD1 10-dose IC50 fluorescence coupling enzyme assay (HRP/Amplex Red, resorufin). It is filed as biochemical. To be noted: 10 M histone H3(1-21)K4me2 peptide substrate; 3-fold serial dilution in duplicate starting at 100 μM. On the procedure:
Compounds were tested in a 10-dose IC50 mode fluorescence coupling enzyme assay with 3-fold serial dilution in duplicate starting at 100 μM. The production of FAD-dependent H2O2 as a result of demethylase activity of LSD1 on […] histone H3(1-21)K4me2 peptide substrate was measured by coupling with HRP and Amplex Red to yield resorufin (fluorescence measured at Ex/Em=535/590 nm on EnVision, Perkin Elmer).

Experiment [2] deals with MV4;11 cells. Description: Cell Titer-Glo Luminescent Cell Viability Assay, cell growth inhibition against MV4;11 cells. The format is cell-based. To be noted: Homo sapiens. On the procedure:
Cell growth inhibition against MV4;11 cells was confirmed for the synthetic compounds. The Cell Titer-Glo Luminescent Cell Viability Assay (Promega, USA) was used to determine the number of viable cells in culture based on quantitation of the ATP present, which signals the presence of metabolically active cells. This assay was run in a 96-well plate format arrayed in a 10-point dose curve, ranging from 0 to 50 μM with 4-fold dilutions for each compound. Cells are seeded on Day 0 at 3750 cells per well. At Day 5, a portion of each well is assayed for viability according to the Cell Titer-Glo protocol. Briefly, cells/plates were centrifuged at 1100×g for 5 minutes. 100 μL of media was removed from each well and replaced with 100 μL of CellTiter-Glo. The plates were shaken at room temperature for 10 minutes and measured on a luminescence plate reader. Another portion of each well from the Day 5 plate is used to seed a new 96 plate containing fresh compound and media set up in the equivalent 10-point dose curve array in order to continue the cell growth inhibition assay for another 5 days. A final timepoint is collected at Day 10 using the Cell Titer-Glo protocol. Luminescence was detected on an EnVision® Multilabel Plate Reader (Perkin Elmer, Waltham, Mass.) and IC50 determination was made using Graph Pad Prism software.
(ATP-based viability assays read luminescence as a measure of living cells.)

Where [3] appears, read: MV4-11, MV4;11 cells, Day 10 (re-seeded at Day 5 with fresh compound), 10-point dose curve 0 to 50 μM, read-out: Cell Titer Glo IC50 (10 d).
Where [4] appears, read: MV4-11, 120 h, MV4;11 cells, Day 5, 10-point dose curve 0 to 50 μM, read-out: Cell Titer Glo IC50 (5 d).

pIC50: −log10 of the molar value. Read-outs that look alike come from different tables or passages of the source.

As a reminder, the pIC50 is the IC50 on a negative log10 scale, so that one unit is a factor of ten. Regarding `Cn1ncc2cc(-n3nc(C(=O)N4CCC[C@@H](N)C4)cc3-c3ccc(C#N)c(F)c3)ccc21` [Example 43, (R)-4-(3-(3-aminopiperidine-1-carbonyl)-1-(1-methyl-1H-indazol-5-yl)-1H-pyrazol-5-yl)-2-fluorobenzonitrile 2,2,2-trifluoroacetate], the pIC50 in experiment [1] and in experiment [2] (setting [3]) was above 6.30 throughout.

Take `COc1ccc(-n2nc(C(=O)N3CCCC(N)C3)cc2-c2ccc(C#N)cc2)cc1` (stereo not shown) [Example 2, 4-(3-(3-Aminopiperidine-1-carbonyl)-1-(4-methoxyphenyl)-1H-pyrazol-5-yl)benzonitrile]: the pIC50 in experiment [1] was above 6.30; in experiment [2] (setting [4]) it was 6.00 to 6.30.

For `Cc1ccc(-n2nc(C(=O)N3CCC[C@H](N)C3)cc2-c2ccc(C#N)c(F)c2)cc1` [Example 12, (S)-4-(3-(3-Aminopiperidine-1-carbonyl)-1-(p-tolyl)-1H-pyrazol-5-yl)-2-fluorobenzonitrile], the pIC50 in experiment [1], in experiment [2] (setting [4]) and in experiment [2] (setting [3]) was above 6.30 throughout.

Take `COc1ccc(-n2ncc(C(=O)N3CCCC(N)C3)c2-c2ccc(C#N)cc2)cc1` (stereo not shown) [Example 88, 4-(4-(3-aminopiperidine-1-carbonyl)-1-(4-methoxyphenyl)-1H-pyrazol-5-yl)benzonitrile]: the pIC50 in experiment [1] and in experiment [2] (setting [4]) was below 5.00 in each case.

Take `Cc1ccc(-n2nc(C(=O)N3CCCC(CN)C3)cc2-c2ccc(C#N)c(F)c2)cc1` (stereo not shown) [Example 7, 4-(3-(3-(Aminomethyl)piperidine-1-carbonyl)-1-(p-tolyl)-1H-pyrazol-5-yl)-2-fluorobenzonitrile]: the pIC50 in experiment [1] was above 6.30; in experiment [2] (setting [4]) it was 5.00 to 6.00.

Consider `Cc1ccc(-n2nc(C(=O)N3CCC[C@@H](N)C3)cc2-c2ccc(C#N)c(F)c2)cc1` [Example 11, (R)-4-(3-(3-Aminopiperidine-1-carbonyl)-1-(p-tolyl)-1H-pyrazol-5-yl)-2-fluorobenzonitrile], for which the pIC50 in experiment [1], in experiment [2] (setting [4]) and in experiment [2] (setting [3]) was above 6.30 each time.

As to `COc1ccc(-n2nc(-c3ccc(C#N)cc3)cc2C(=O)NC2CCCNC2)cc1` (stereo not shown) [Example 5, 3-(4-Cyanophenyl)-1-(4-methoxyphenyl)-N-(piperidin-3-yl)-1H-pyrazole-5-carboxamide 2,2,2-trifluoroacetate], the pIC50 in experiment [1] is 5.00 to 6.00; in experiment [2] (setting [4]) it was below 5.00.

For `COc1ccc(-n2nc(C(=O)NC3CCNC3)cc2-c2ccc(C#N)c(F)c2)cc1` (stereo not shown) [Example 21, 5-(4-Cyano-3-fluorophenyl)-1-(4-methoxyphenyl)-N-(pyrrolidin-3-yl)-1H-pyrazole-3-carboxamide], the pIC50 in experiment [1] is 6.00 to 6.30; in experiment [2] (setting [4]), 5.00 to 6.00.

`COc1cc(N2CCNC(=O)C2)ccc1-n1nc(C(=O)N2CCC[C@@H](N)C2)cc1-c1ccc(C#N)c(F)c1` [Example 51, (R)-4-(3-(3-aminopiperidine-1-carbonyl)-1-(2-methoxy-4-(3-oxopiperazin-1-yl)phenyl)-1H-pyrazol-5-yl)-2-fluorobenzonitrile] showed a negative logarithm of the IC50 (pIC50) in experiment [1] above 6.30.

Consider `N#Cc1ccc(-c2cc(C(=O)N3CCC[C@H](N)C3)nn2-c2ccc(N3CCCC3)cc2)cc1F` [Example 61, (S)-4-(3-(3-aminopiperidine-1-carbonyl)-1-(4-(pyrrolidin-1-yl)phenyl)-1H-pyrazol-5-yl)-2-fluorobenzonitrile 2,2,2-trifluoroacetate], for which the pIC50 in experiment [1], in experiment [2] (setting [4]) and in experiment [2] (setting [3]) was above 6.30 each time.

With `COc1ccc(-n2nc(C(=O)NC3CCNCC3)cc2-c2ccc(C#N)c(F)c2)cc1` [Example 24, 5-(4-Cyano-3-fluorophenyl)-1-(4-methoxyphenyl)-N-(piperidin-4-yl)-1H-pyrazole-3-carboxamide], the negative-log IC50 (pIC50) in experiment [1] and in experiment [2] (setting [4]) was 5.00 to 6.00 throughout.

In the case of `CN1CCN(c2ccc(-n3nc(C(=O)N4CCC[C@H](N)C4)cc3-c3ccc(C#N)c(F)c3)cc2)CC1` [Example 59, (S)-4-(3-(3-aminopiperidine-1-carbonyl)-1-(4-(4-methylpiperazin-1-yl)phenyl)-1H-pyrazol-5-yl)-2-fluorobenzonitrile], the pIC50 in experiment [1] was above 6.30; in experiment [2] (setting [4]) it was 5.00 to 6.00; in experiment [2] (setting [3]) it was above 6.30.

Consider `COC1CCN(c2ccc(-n3nc(C(=O)N4CCC[C@@H](N)C4)cc3-c3ccc(C#N)c(F)c3)nc2)CC1` [Example 53, (R)-4-(3-(3-aminopiperidine-1-carbonyl)-1-(5-(4-methoxypiperidin-1-yl)pyridin-2-yl)-1H-pyrazol-5-yl)-2-fluorobenzonitrile 2,2,2-trifluoroacetate], for which the pIC50 in experiment [1] was 5.00 to 6.00; in experiment [2] (setting [3]), above 6.30.

On to `COC1CCN(c2ccc(-n3nc(C(=O)N4CCC[C@H](N)C4)cc3-c3ccc(C#N)c(F)c3)cc2)CC1` [Example 63, (S)-4-(3-(3-aminopiperidine-1-carbonyl)-1-(4-(4-methoxypiperidin-1-yl)phenyl)-1H-pyrazol-5-yl)-2-fluorobenzonitrile 2,2,2-trifluoroacetate], for which the pIC50 was above 6.30 in experiment [1], 6.00 to 6.30 in experiment [2] (setting [4]) and above 6.30 in experiment [2] (setting [3]).

For `N#Cc1ccc(-c2cc(C(=O)N3CCC[C@@H](N)C3)nn2-c2ccc(-c3ccc4c(c3)OCCO4)cc2)cc1F` [Example 85, (R)-4-(3-(3-aminopiperidine-1-carbonyl)-1-(4-(2,3-dihydrobenzo[b][1,4]dioxin-6-yl)phenyl)-1H-pyrazol-5-yl)-2-fluorobenzonitrile 2,2,2-trifluoroacetate], the negative logarithm of the IC50 (pIC50) in experiment [1] and in experiment [2] (setting [3]) was above 6.30 throughout.

In the case of `Cc1ccc(-n2nc(C(=O)NC3CCNC3)cc2-c2ccc(C#N)c(F)c2)cc1` (stereo not shown) [Example 10, 5-(4-Cyano-3-fluorophenyl)-N-(pyrrolidin-3-yl)-1-(p-tolyl)-1H-pyrazole-3-carboxamide], the negative logarithm of the IC50 (pIC50) is 6.00 to 6.30 in experiment [1] and 5.00 to 6.00 in experiment [2] (setting [4]).

Regarding `COc1ccc(-n2nc(C(=O)N3CCC(NC(=N)N)CC3)cc2-c2ccc(C#N)c(F)c2)cc1` [Example 30, 1-(1-(5-(4-Cyano-3-fluorophenyl)-1-(4-methoxyphenyl)-1H-pyrazole-3-carbonyl)piperidin-4-yl)guanidine 2,2,2-trifluoroacetate], the pIC50 in experiment [1] is 5.00 to 6.00.

Compound `CN1CCN(c2ccc(-n3nc(C(=O)N4CCC[C@@H](N)C4)cc3-c3ccc(C#N)c(F)c3)c(F)c2)CC1` [Example 67, (R)-4-(3-(3-aminopiperidine-1-carbonyl)-1-(2-fluoro-4-(4-methylpiperazin-1-yl)phenyl)-1H-pyrazol-5-yl)-2-fluorobenzonitrile] showed a negative-log IC50 (pIC50) in experiment [1] above 6.30.

Compound `CN1CCN(c2ccc(-n3nc(-c4ccc(C#N)c(F)c4)cc3C(=O)N3CCC[C@@H](N)C3)cc2F)CC1` [Example 80, (R)-4-(5-(3-aminopiperidine-1-carbonyl)-1-(3-fluoro-4-(4-methylpiperazin-1-yl)phenyl)-1H-pyrazol-3-yl)-2-fluorobenzonitrile 2,2,2-trifluoroacetate] gave a pIC50 in experiment [1] above 6.30.

In turn, `N#Cc1ccc(-c2cc(C(=O)N3CCC[C@@H](N)C3)nn2-c2ccc(N3CCNC(=O)C3)cc2)cc1F` [Example 49, (R)-4-(3-(3-aminopiperidine-1-carbonyl)-1-(4-(3-oxopiperazin-1-yl)phenyl)-1H-pyrazol-5-yl)-2-fluorobenzonitrile] had a pIC50 in experiment [1] above 6.30.

(Values after US20260085082A1, “KDM1A INHIBITORS FOR THE TREATMENT OF DISEASE” (Imago Biosciences, Inc., priority 2022, published 2026).)
